Results from PMC7760514, “Fatty Acid Conjugation Leads to Length-Dependent Antimicrobial Activity of a Synthetic Antibacterial Peptide (Pep19-4LF)” (Antibiotics, 2020).
In brackets after ≈: the same amount, converted by molar mass. Peptide text beside a SMILES is read from it. * marks the point of attachment. Hexanoyl = CCCCCC(=O)*

What was measured:
[1] = tested on: Acinetobacter bohemicus (DSM 100419); assay: Minimal bactericidal concentration (MBC); type: cell-based; settings: Table S2, n=3; unit inferred; lowest concentration killing 99.9% of the inoculum; agar 24 h, 30 ± 1 °C
Experimental: (§1) Minimal bactericidal concentrations (MBCs) were determined by pipetting 3 µL of each broth dilution solution without visible growth onto a new agar plate. The agar plates were incubated at 37 ± 1 °C (for A. bohemicus: 30 ± 1 °C) for 24 h and were again analyzed with respect to bacterial growth. MBC is defined as the lowest concentration killing 99.9% of the inoculum.

[2] = tested on: Rothia kristinae (DSM 20032); assay: Minimal bactericidal concentration (MBC); type: cell-based; settings: Table 3 of supplement, n=3; unit inferred; lowest concentration killing 99.9% of the inoculum; agar 24 h, 37 ± 1 °C
Experimental: as §1

[3] = rat, in vivo, iv
Experimental: For this purpose, the tyrosine residues of the peptides were radiolabeled with ^125I (Hartmann Analytic GmbH, Braunschweig, Germany) using the chloramine-T method [28]. Free ^125I was separated by preparative HPLC as previously described by Schieck et al. [22]. Approximately 2 to 4 MBq of the radiolabeled peptides was injected intravenously into the tail vein and images were recorded immediately post injection and after 1 h, 2 h, 3 h, 5 h, and 24 h. Scintigraphical images were obtained by using a γ-camera (Gamma Imager, Biospace Lab, Paris, France).

[4] = type: physicochemical
Source text: The high MIC value of Pep19-short indicates the importance of a hydrophobic moiety for this synthetic antimicrobial peptide. […] If the length of the fatty acid is too short, the interaction between the peptide conjugate and components of the bacterial cell membrane might be unfavorable, thus leading to loss of efficiency. Fatty acids of medium chain length enable a stable plateau of low MIC values, indicating a more efficient interaction between the peptide conjugate and bacterial cells. […] A detailed interaction between Pep19 peptides and membrane-bound toxins was previously described by Correa et al.. […] A hypothesized mechanism for this interaction represents the reorganization of the bacterial membrane leading in an inability to maintain the osmotic pressure. Here, the positively-charged amino acids of the peptide conjugate might interact with the negatively-charged compounds of the bacterial cell wall and the hydrophobic part interacts with hydrophobic lipids of the bacterial membrane. Several mechanisms for a membrane disruption by amphiphilic peptides were further described by Sato and Feix. With respect to the parent peptide Pep19-4LF, the hydrophobic moiety was located at the C-terminus. As the synthesis leads to peptides that are linked to the resin via their C-terminus, the fatty acids were linked to the free N-terminus of the peptide. […]

[5] = tested on: Acinetobacter bohemicus (DSM 100419); assay: Minimal inhibitory concentration (MIC), broth microdilution; type: cell-based; design: key to MIC value: MIC in μg/mL (lowest concentration without visible growth); settings: 30 ± 1 °C; for MIC value: Table S2, n=3, no unit given (main text uses µg/mL)
Experimental: (§2) Minimal inhibitory concentrations (MICs) were determined against Gram-positive Enterococcus faecium vanA (UL 602570*, clinical isolate from Institute for Medical Microbiology and Hygiene, Heidelberg University Hospital, Heidelberg, Germany), Staphylococcus aureus (ATCC 25923), Rothia kristinae (DSM 20032), and Gram-negative Acinetobacter bohemicus (DSM 100419) (all obtained from the Department of Infectious Diseases, Medical Microbiology and Hygiene, Heidelberg University, Heidelberg, Germany) in a 96-well polypropylene plate (650261 Greiner Bio-One GmbH, Frickenhausen, Germany) according to European Committee on Antimicrobial Susceptibility Testing (EUCAST) and The Clinical & Laboratory Standards Institute (CLSI) guidelines. Briefly, the stock solutions of the peptide conjugates in water were adjusted to a concentration of 1.28 mg/mL. Starting with the highest concentration of 64 μg/mL in 96-well polypropylene plates, dilution series in cation-adjusted Mueller–Hinton broth (MHB II; Sigma Aldrich, Steinheim, Germany) were performed, resulting in the lowest concentration of 0.125 μg/mL. A logarithmic growing bacterial culture was adjusted to a McFarland corresponding to 1 × 10^8 cfu/mL using a McFarland counter (DensiCHEK® plus, bioMerieux, Marcy-l’Étoile, France). Finally, a bacterial suspension of 1 × 10^6 cfu/mL (further diluted in MHB II) was added to each peptide-conjugate concentration. Thus, the final bacterial concentration in each well was 5 × 10^5 cfu/mL. The bacteria were incubated at 37 ± 1 °C (for A. bohemicus: 30 ± 1 °C) overnight and the bacterial growth was analyzed after 18 to 20 h. The MIC was defined as the lowest concentration of substance without any visible growth. Vancomycin and colistin sulfate were purchased from Sigma-Aldrich Chemie GmbH, München, Germany and Carl Roth GmbH, Karlsruhe, Germany.

[6] = tested on: Rothia kristinae (DSM 20032); assay: Time-kill studies; type: cell-based; settings: for time until all bacteria killed: n=3
Experimental: Time–kill studies were performed in accordance with CLSI guidelines. Therefore, Rothia kristinae DSM 20032 was adjusted to a concentration of 1 x 10^8 cfu/mL and further diluted to 1 × 10^6 cfu/mL in cation-adjusted MHB II. According to the previous determined MIC values of Pep19-4LF, C11-Pep19-4LF, and bacitracin (positive control) (Sigma Aldrich Chemie GmbH, München, Germany), samples were taken for 4 × MIC, 2 × MIC, 1 × MIC, and 0.5 × MIC after 30 min, 1 h, 2 h, 4 h, and 8 h. These samples were diluted in sterile saline and 10 µL of each sample was loaded onto agar plates. A bacterial suspension of 1 × 10^6 cfu/mL served as a growth control. Incubation occurred at 37 ± 1 °C and all counted colonies were recalculated to the colony number in the original inoculum.

[7] = tested on: Rothia kristinae (DSM 20032); assay: Minimal inhibitory concentration (MIC), broth microdilution; type: cell-based; settings: Table 3 of supplement, n=3; unit inferred; 37 ± 1 °C
Experimental: as §2

[8] = tested on: Enterococcus faecium (UL602570*, clinical isolate, vanA-resistant); assay: as above; type: cell-based; settings: cation-adjusted MHB II, 5 × 10^5 cfu/mL, 37 ± 1 °C, read after 18 to 20 h, n = 3
Experimental: as §2

[9] = tested on: Staphylococcus aureus (ATCC 25923); assay: as above; type: cell-based; settings: cation-adjusted MHB II, 5 × 10^5 cfu/mL, 37 ± 1 °C, read after 18 to 20 h, n = 3
Experimental: as §2

red blood cells = type: cell-based, human
Experimental: A hemolysis assay was performed using heparinized blood for Pep19-4LF, Pep19-2.5, C6-Pep19-short, C11-Pep19-short, and C18-Pep19-short to test the toxicity against red blood cells and selectivity against bacterial cells. A 600 µM stock solution of each peptide was prepared in 0.9% NaCl. Heparinized blood was taken from three individual fasted, healthy volunteers. To purify the erythrocytes, the blood was centrifuged at 2500 rpm for 10 min and the supernatant was removed. The cell-pellet was resuspended in standard PBS. The centrifugation step was repeated for three times until the supernatant was visibly clear. A 96-well v-bottom plate (Greiner Bio-One International GmbH, Kremsmünster, Austria) was loaded as follows: row 1 (A1-H1) was preloaded with 100 µL of 600 µM peptide stock solution and row 12 (A12-H12) was preloaded with 50 µL 10% Triton X-100 (PerkinElmer, Boston, USA) and served as a positive control. […] Fifty µL of the supernatant was then transferred to a new 96-well flat-bottom plate (Greiner Bio-One International GmbH, Kremsmünster, Austria) and the absorbance was measured at a wavelength of 554 nm, using an Infinite M200 PRO microplate reader (Tecan Trading, Maennedorf).
Hemolysis was calculated with the following equation: Hemolysis [%]= Aconjugate− Ablank/ATriton− Ablank

| Compound | MBC value [1] [µg/mL] | MBC value [2] [µg/mL] | speed of elimination compared among the peptides [3] | solubility in water [4] | MIC value [5] | MIC ([5]; broth microdilution, cation-adjusted MHB II, 5 × 10^5 cfu/mL, read after 18 to 20 h, n = 3) [µg/mL] | change in number of cfu/mL ([6]; 0.5 × MIC, 0 to 8 h, n = 3) | time until all bacteria killed ([6]; 1 × MIC) [h] | time until all bacteria killed ([6]; 2 × MIC) [h] | time until all bacteria killed / no detectable cfu ([6]; 4 × MIC, 1 × 10^6 cfu/mL in MHB II, 37 °C, n = 3) [min] | mode of action ([6]; 4 × MIC, n = 3) | MIC value [7] [µg/mL] | MIC [8] [µg/mL] | MIC [9] [µg/mL] | hemolytic activity (red blood cells) |
| --- | --- | --- | --- | --- | --- | --- | --- | --- | --- | --- | --- | --- | --- | --- | --- |
| GKKYRRFRWKFKGKLFLFG-NH2 [Pep19-4LF, synthetic antimicrobial parent peptide, …-NH2] | 8 | 8 | slowest elimination | very low solubility in water | 8 | 8 | only a small decrease in the number of cfu/mL | > 8 | 1 | 30 | bactericidal mode of action | 8 | 8 | 32 | – |
| CCCCCC(=O)NCC(=O)N[C@@H](CCCCN)C(=O)N[C@@H](CCCCN)C(=O)N[C@@H](Cc1ccc(O)cc1)C(=O)N[C@@H](CCCNC(=N)N)C(=O)N[C@@H](CCCNC(=N)N)C(=O)N[C@@H](Cc1ccccc1)C(=O)N[C@@H](CCCNC(=N)N)C(=O)N[C@@H](Cc1c[nH]c2ccccc12)C(=O)N[C@@H](CCCCN)C(=O)N[C@@H](Cc1ccccc1)C(=O)N[C@@H](CCCCN)C(=O)NCC(=O)N[C@@H](CCCCN)C(N)=O [C6-Pep19-short] (Hexanoyl-GKKYRRFRWKFKGK-NH2) | 16 (≈ 8.07 µM) | 32 (≈ 16.1 µM) | – | – | 16 | – | – | – | – | – | – | 16 (≈ 8.07 µM) | – | – | no hemolytic activity |
